Reference: patent publication US7786134B2, “Lipophilic anticancer drug compounds, compositions and related methods” (Sonus Pharmaceuticals, Inc., priority 2005, dated 2010)
Where two headings read alike, the source gives them in different places.

Key:
HCT-116 (COLON) [1] = test: In vitro cytotoxicity (GI50), Sulforhodamine B staining, HCT-116; assay type: cell-based; conditions: HCT-116 cells, 48 hours contact, read-out: Concentration that produce 50% cell growth inhibition (GI50) HCT-116 (COLON)
Description: (§1) The study was performed using a solution of the lipophilic anticancer drug compounds in DMSO (1 mM) diluted in the corresponding cell media. The cells were in contact with varying concentrations of the test article for a period of 48 hours. At the end of 48 hours, staining with Sulforhodamine B was performed to determine the number of viable cells and calculate the degree of cellular growth inhibition as compared to a control group.

HCT-15 (colorectal) [2] = test: In vitro cytotoxicity (GI50), Sulforhodamine B staining, HCT-15; assay type: cell-based; conditions: HCT-15 cells, 48 hours contact, read-out: Concentration that produce 50% cell growth inhibition (GI50) HCT-15 (COLON)
Description: as §1

[3] = test system: H460 (non-small cell lung); test: In vitro cytotoxicity (GI50), Sulforhodamine B staining, H460; assay type: cell-based; conditions: H460 cells, 48 hours contact, read-out: Concentration that produce 50% cell growth inhibition (GI50) H460 (NSCLC)
Description: as §1

SKOV-3 (ovarian) [4] = test: In vitro cytotoxicity (GI50), Sulforhodamine B staining, SKOV-3; assay type: cell-based; conditions: SKOV-3 cells, 48 hours contact, read-out: Concentration that produce 50% cell growth inhibition (GI50) SKOV-3 (OVARIAN)
Description: as §1

SKOV-3 (ovarian) [5] = conditions: SKOV-3 cells, National Cancer Institute (NCI) GI50 values; read-out: Concentration that produce 50% cell growth inhibition (GI50) SKOV-3 (OVARIAN); cited from earlier work
HCT-15 (colorectal) [6] = conditions: HCT-15 cells, National Cancer Institute (NCI) GI50 values; read-out: Concentration that produce 50% cell growth inhibition (GI50) HCT-15 (COLON); cited from earlier work
HCT-116 (COLON) [7] = conditions: HCT-116 cells, National Cancer Institute (NCI) GI50 values; read-out: Concentration that produce 50% cell growth inhibition (GI50) HCT-116 (COLON); cited from earlier work
[8] = test system: H460 (non-small cell lung); conditions: H460 cells, National Cancer Institute (NCI) GI50 values; read-out: Concentration that produce 50% cell growth inhibition (GI50) H460 (NSCLC); cited from earlier work

| Molecule | GI50 (HCT-116 (COLON) [1]) [nM] | GI50 (HCT-15 (colorectal) [2]) [nM] | GI50 [3] [nM] | GI50 (SKOV-3 (ovarian) [4]) [nM] | GI50 (SKOV-3 (ovarian) [5]) [nM] | GI50 (HCT-15 (colorectal) [6]) [nM] | GI50 (HCT-116 (COLON) [7]) [nM] | GI50 [8] [nM] |
| --- | --- | --- | --- | --- | --- | --- | --- | --- |
| 10-(N-n-butyl carbamate)-7-ethylcamptothecin | 1.1 | 44.7 | 1.2 | 0.398 |  |  |  |  |
| 10-(n-butyl carbonoyloxy)-7-ethylcamptothecin | 0.58 | 120 | 2.95 | 0.275 |  |  |  |  |
| CCc1c2c(nc3ccc(O)cc13)-c1cc3c(c(=O)n1C2)COC(=O)[C@]3(O)CC [7-ethyl-10hydroxycamptothecin, 7-ethyl-10-hydroxycamptothecin] |  |  |  |  | 1 | 7.9 | 21 | 1.4 |
| CCCCCCCCOC(=O)CCC(=O)Oc1ccc2nc3c(c(CC)c2c1)Cn1c-3cc2c(c1=O)COC(=O)C2(O)CC (centres unmarked) [10-(1-octyl succinate)-7-ethylcamptothecin] | 9.75 | 661 | 2460 | 3.46 |  |  |  |  |
| CCc1c2c(nc3ccc(OC(=O)CCC(=O)OCc4c(C)c(C)c(C)c(C)c4C)cc13)-c1cc3c(c(=O)n1C2)COC(=O)C3(O)CC (centres unmarked) [10-(2,3,4,5,6-pentamethylbenzyl succinate)-7-ethylcamptothecin] | 3.09 | 32.4 | 3.82 | 2.13 |  |  |  |  |
| CCc1c2c(nc3ccc(OC(=O)CCC(=O)OCc4c(C)cc(C)cc4C)cc13)-c1cc3c(c(=O)n1C2)COC(=O)C3(O)CC (centres unmarked) [10-(2,4,6-trimethylbenzyl succinate)-7-ethylcamptothecin] | 3.54 | 31.6 | 5.12 | 3.67 |  |  |  |  |
| CCCCOc1ccc(C(=O)Oc2ccc3nc4c(c(CC)c3c2)Cn2c-4cc3c(c2=O)COC(=O)C3(O)CC)cc1 (centres unmarked) [10-(4-butoxybenzoyloxy)-7-ethylcamptothecin] | 5.62 | 141 | 28.2 | 5.5 |  |  |  |  |
| CCc1c2c(nc3ccc(OC(=O)CCC(=O)OCc4ccc(C)cc4)cc13)-c1cc3c(c(=O)n1C2)COC(=O)C3(O)CC (centres unmarked) [10-(4-methylbenzyl succinate)-7-ethylcamptothecin] | 2.29 | 75.4 | 5.37 | 6.16 |  |  |  |  |
| CCc1c2c(nc3ccc(OC(=O)NC(C)(C)C)cc13)-c1cc3c(c(=O)n1C2)COC(=O)C3(O)CC (centres unmarked) [10-(N-t-butyl carbamate)-7-ethylcamptothecin] | 15.1 | 158 | 5.75 | 1.29 |  |  |  |  |
| CCc1c2c(nc3ccc(OC(=O)CC4(CC(=O)OCc5ccccc5)CCCC4)cc13)-c1cc3c(c(=O)n1C2)COC(=O)[C@]3(O)CC [10-(benzyl 3,3-tetramethyleneglutarate)-7-ethylcamptothecin] | 3.49 | 85.1 | 8.91 | 2.95 |  |  |  |  |
| CCc1c2c(nc3ccc(OC(=O)CCC(=O)OCc4ccccc4)cc13)-c1cc3c(c(=O)n1C2)COC(=O)C3(O)CC (centres unmarked) [10-(benzyl succinate)-7-ethylcamptothecin] | 10.7 | 50.1 | 0.372 | 1.29 |  |  |  |  |
| CCc1c2c(nc3ccc(OCc4ccccc4)cc13)-c1cc3c(c(=O)n1C2)COC(=O)[C@]3(O)CC [10-benzyloxy-7-ethylcamptothecin] | 4.52 | 5.66 | 0.32 | 15 |  |  |  |  |
| CC[C@@]1(O)C(=O)OCc2c1cc1n(c2=O)Cc2cc3cc(O)ccc3nc2-1 [10-hydroxycamptothecin] |  |  |  |  |  | 356 | 27 | 11 |
| CCCCCCCCOC(=O)CCC(=O)OC1(CC)C(=O)OCc2c1cc1n(c2=O)Cc2cc3ccccc3nc2-1 (centres unmarked) [20-(1-octyl succinate)camptothecin] | 766 | 354 | 165 | 2420 |  |  |  |  |
| CCC1(OC(=O)CCC(=O)OCc2ccccc2)C(=O)OCc2c1cc1n(c2=O)Cc2cc3ccccc3nc2-1 (centres unmarked) [20-(benzyl succinate)camptothecin] | 630 | 1300 | 380 | 562 |  |  |  |  |
| CC[C@@]1(O)C(=O)OCc2c1cc1n(c2=O)Cc2cc3ccccc3nc2-1 [Camptothecin] |  |  |  |  | 25 | 160 | 40 | 16 |
| CCc1c2c(nc3ccc(OC(=O)N4CCC(N5CCCCC5)CC4)cc13)-c1cc3c(c(=O)n1C2)COC(=O)[C@]3(O)CC [Irrinotecan, irinotecan] |  |  |  |  |  |  | 7900 | 5100 |
| CC[C@@]1(O)C(=O)OCc2c1cc1n(c2=O)Cc2cc3c(CN(C)C)c(O)ccc3nc2-1 [Topotecan, topotecan] |  |  |  |  |  | 501 | 39.8 | 19.9 |
